This is an account of results in patent US7125902B2, “Methods, compounds, and diagnostics for cancer treatment” (priority 2004, dated 2006).

Data set [1] concerns C6 (Rat Glialtumor Cell or CCL-107) Cell Line. Description: MTT colorimetric assay for cellular viability on C6 cells. Conditions: 48-h incubation. In kind it is cell-based. On the procedure:
Cell lines (C6 and Hep G2) were obtained from the Bioresource Collection and Research Center. All cell culture media and supplements were purchased from Invitrogen, Co. (GIBCO™, Gland Island, N.Y.) unless otherwise specified. All cells were grown in a humid atmosphere of 95% air and 5% CO2 at 37° C. Cell lines were maintained under standard conditions in culture media recommended by the American Type Culture Collection (ATCC), unless otherwise specified. C6 cells were grown in 82.5% Ham's F-10 medium, 15% horse serum and 2.5% FBS. Hep G2 were cultured in 90% MEM (Eagle) with non-essential amino acids and Earle's BSS amd 10% FBS.
All compounds were tested for inhibition of anchorage-dependent tumor cell growth using MTT assay. All compounds were individually solubilized in DMSO and diluted into appropriate growth medium at 2-fold desired final assay concentration. In assays, cells were seeded into 96-well plates and allowed to adhere for 24 h before drugs were introduced. Following a 48-h incubation, compounds and medium were removed by flicking, and each well was treated with 100 μl of 500 μg/ml MTT [3-(4,5-dimethylthiazol-2-yl)-2,5-diphenyltetrazolium bromide] in culture medium. Following a 4-h incubation period to allow metabolism of MTT by mitochondrial dehydrogenases of viable cells to form an insoluble formazan product, the crystals were dissolved in 100 μL of acid-SDS (0.01 N HCl in 10% SDS) by incubating the plate overnight. Absorbance, as a measure of cell viability, was read the following day in an ELISA plate reader at a wavelength of 550 nm. IC50 values were obtained by a linear regression analysis of percentage absorbance vs. log drug concentration.
For orientation: Tetrazolium assays rely on reduction of a dye to a coloured formazan, in cell work by metabolically active cells.

Data set [2] relates to Male ICR mice. Description: Acute toxicity study, determination of LD50 values. It counts as in vivo. Conditions: for LD50 / Survival at 2,000 mg/Kg: male ICR mice; for LD50: single intraperitoneal injection, observed for three days; for Acute symptoms observed: mouse, in vivo, ip; for Survival at 2,000 mg/Kg: i.p., 2,000 mg/Kg, three-day observation. On the procedure:
(§1) Leflunomide, its metabolite (A77 1726), and several isoxazole derivatives were chosen for the acute toxicity study. Male ICR mice were used for the intraperitoneal injection of each compound at different doses according to the following procedure: Small male ICR mice are chosen, each weighing 17–23 grams. They are equally classified at random into individual groups, 3–5 mice per group. A predetermined dose of each selected compound in minimum DMSO/liquid paraffin is injected once intraperitoneally to mice in each group. Toxic reaction is observed for three days, then the acute half lethal dose (LD50) is determined.

Data set [3] has as its system HT29 (adenocarcinoma of the colon). The experiment in a line: SRB cell proliferation assay on HT-29 cells. Conditions: for Cell viability, Reading (avg of 3): HT-29, SRB reading at 515 nm, 5d exposure. In kind it is cell-based, human. As to the method: The cell lines used were HT29 (adenocarcinoma of the colon). The tumor cells were grown at 37° C. in a humidified atmosphere (5% CO2) as monolayer cultures in RPMI 1640 medium supplemented with 10% FCS. Cells were trypsinized upon passage and maintained routinely.
UTL-5b and UTL-5 were dissolved in DMSO as 4 mM stock solutions and then further diluted in 1% carboxymethyl cellulose.
The SRB assay is routinely employed to measure cell proliferation by the US-NCI 60 cell line screen. Exponentially growing cells were harvested by trypsination, counted and seeded into 96 well plates (2.000 cells/well). […] Total protein mass was determined after 5d of continuous drug exposure by addition of Sulforhodamine B (0.4%) solution. Readings were read at 515 nm, as cell viability, and IC50 values were estimated based on the results.

The nature of data set [4]: Acute toxicity study, determination of LD50 values. It counts as in vivo. The following applies: male, ICR, mouse, in vivo, ip. On the procedure: as §1

In general, IC50 refers to the concentration at which inhibition is half-maximal. Turning to `Cc1cc(C(=O)Nc2cccc(Cl)c2)no1` [UTL-5c], the half-inhibitory concentration (IC50) in data set [1] was 0.163 µM.
The same measure, in the same setting: the result for `COc1ccc(NC(=O)c2cc(C)on2)cc1` [UTL-5h] reads 0.35 µM.
A word on the LD50: it is the dose expected to kill half of the subjects tested. A high value points to lower toxicity. With `Cc1cc(C(=O)Nc2ccc(Cl)cc2)no1` [UTL-5d], in data set [2], the LD50 is 1,800 mg/Kg. The IC50 was 0.81 µM in data set [1] and 0.7 µM in data set [3] (HT-29 cells, SRB assay, 5d continuous exposure, estimated from readings). The “Activity in human colon cancer cell line HT29 (in words)” value in data set [3] (HT29, SRB assay) was “very good activity”. Also, the “Cell viability, Reading (avg of 3)” value in data set [3] (Conc. 0.001 μM) was 1.238; in data set [3] (Conc. 0.002 μM), 1.014; in data set [3] (Conc. 0.01 μM) it was 0.886; in data set [3] (Conc. 0.05 μM), 0.914; in data set [3] (Conc. 0.1 μM), 0.864; in data set [3] (Conc. 0.5 μM), 0.893. Further, the “Cell viability, Reading (avg of 3)” value in data set [3] (Conc. 1 μM) was 0.436; in data set [3] (Conc. 10 μM) it was 0.314; in data set [3] (Conc. 50 μM), 0.164; in data set [3] (Conc. 100 μM) it was 0.13.
`Cc1oncc1C(=O)Nc1ccc(C(F)(F)F)cc1` [Leflunomide, N-(4-trifluoromethylphenyl)-4-carboxamidyl-5-methylisoxazole, reference compound] displayed an LD50 at 3 days in data set [4] of 250 mg/kg. The Acute symptoms observed result in data set [2] is “Cyanosis and deep necrosis”. The compound also returned an IC50 in data set [1] (Rattus norvegicus) of 0.162 µM.
`Cc1cc(C(=O)Nc2ccc(C(=O)O)cc2)no1` [UTL-5j]: in data set [2], the “Survival at 2,000 mg/Kg” value is reported as “all mice were alive”, the LD50 is given as >2,000 mg/Kg and the Acute symptoms observed result is “agitation”. Also, the IC50 in data set [1] worked out at 0.19 µM.
On to `CCOC(=O)CC[C@H](NC(=O)c1ccc(NC(=O)c2cc(C)on2)cc1)C(=O)OCC` [UTL-5l], for which inhibition in data set [1] was half-maximal at 0.16 µM (IC50).
Consider `Cc1cc(C(=O)Nc2ccc(Cl)cc2Cl)no1` [UTL-5g], for which, in data set [2], the “Survival at 2,000 mg/Kg” value is on record as “all mice were alive”, the LD50 is listed as >2,000 mg/Kg and the Acute symptoms observed entry is recorded as “agitation”. The compound also registered an IC50 in data set [1] of 0.18 µM.
In the case of `C/C(O)=C(\C#N)C(=O)Nc1ccc(C(F)(F)F)cc1` [A77 1726, reference compound], in data set [2], the LD50 was 200 mg/kg; the Acute symptoms observed entry is “Cyanosis and deep necrosis”. This compound also gave an IC50 in data set [1] of 0.159 µM.
For the compound `Cc1cc(C(=O)Nc2ccccc2)no1` [UTL-5a], in data set [2], the “Survival at 2,000 mg/Kg” value is on record as “all mice were alive”, the LD50 was >2,000 mg/Kg and the Acute symptoms observed result was “agitation”. Also, the IC50 in data set [1] was 1.37 µM.
With `COc1cc(NC(=O)c2cc(C)on2)cc(OC)c1OC` [UTL-5i], in data set [1], the IC50 is 1.18 µM.
On the same count and under the same terms, the result for `Cc1cc(C(=O)Nc2ccc(C(F)(F)F)cc2)no1` [UTL-5f] reads 0.17 µM; that for `Cc1cc(C(=O)Nc2cccc(C(F)(F)F)c2)no1` [UTL-5e], 0.2 µM; that for `Cc1cc(C(=O)Nc2ccc(F)cc2)no1` [UTL-5k], > 1000 µM.
